Experiments:
Experiment in all cases: relative viability (nuclei count vs DMSO), 5 days (fraction); higher = more cells survive
Palbociclib + Bortezomib = compound: CC(=O)c1c(C)c2cnc(Nc3ccc(N4CCNCC4)cn3)nc2n(C2CCCC2)c1=O [Palbociclib] + CC(C)C[C@H](NC(=O)[C@H](Cc1ccccc1)NC(=O)c1cnccn1)B(O)O [Bortezomib] (partner 0.002 µM)
Method in brief: (§1)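 After 5 days of treatment, lung cancer cells in 1536-well plates were fixed and stained in a single step (final 0.05% Triton X-100, 1% formaldehyde, 1 ug/ml Hoechst) and their nuclei counted on 4× images. Treatment had been applied by pin tool the day after seeding as one drug alone or as a fixed anchor-drug dose with five library-drug doses (not always all listed) in √10 steps. Relative viability is the nuclei count of treated wells divided by that of vehicle wells, and values are medians of duplicate plates.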

Palbociclib + Crizotinib = compound: CC(=O)c1c(C)c2cnc(Nc3ccc(N4CCNCC4)cn3)nc2n(C2CCCC2)c1=O [Palbociclib] + C[C@@H](Oc1cc(-c2cnn(C3CCNCC3)c2)cnc1N)c1c(Cl)ccc(F)c1Cl [Crizotinib] (partner 1 µM)
Method in brief: as §1

Palbociclib + Pictilisib = compound: CC(=O)c1c(C)c2cnc(Nc3ccc(N4CCNCC4)cn3)nc2n(C2CCCC2)c1=O [Palbociclib] + CS(=O)(=O)N1CCN(Cc2cc3nc(-c4cccc5[nH]ncc45)nc(N4CCOCC4)c3s2)CC1 [Pictilisib] (partner 1 µM)
Method in brief: as §1

Palbociclib + Alpelisib = compound: CC(=O)c1c(C)c2cnc(Nc3ccc(N4CCNCC4)cn3)nc2n(C2CCCC2)c1=O [Palbociclib] + Cc1nc(NC(=O)N2CCC[C@H]2C(N)=O)sc1-c1ccnc(C(C)(C)C(F)(F)F)c1 [Alpelisib] (partner 2 µM)
Method in brief: as §1

Cell Line	relative viability (Palbociclib + Bortezomib; first compound 0.01 µM)	relative viability (Palbociclib + Bortezomib; first compound 0.03162 µM)	relative viability (Palbociclib + Bortezomib; first compound 0.1 µM)	relative viability (Palbociclib + Bortezomib; first compound 0.3162 µM)	relative viability (Palbociclib + Bortezomib; first compound 1 µM)	relative viability (Palbociclib + Crizotinib; first compound 0.01 µM)	relative viability (Palbociclib + Crizotinib; first compound 0.03162 µM)	relative viability (Palbociclib + Crizotinib; first compound 0.1 µM)	relative viability (Palbociclib + Crizotinib; first compound 0.3162 µM)	relative viability (Palbociclib + Crizotinib; first compound 1 µM)	relative viability (Palbociclib + Pictilisib; first compound 0.01 µM)	relative viability (Palbociclib + Pictilisib; first compound 0.03162 µM)	relative viability (Palbociclib + Pictilisib; first compound 0.1 µM)	relative viability (Palbociclib + Pictilisib; first compound 0.3162 µM)	relative viability (Palbociclib + Pictilisib; first compound 1 µM)	relative viability (Palbociclib + Alpelisib; first compound 0.01 µM)	relative viability (Palbociclib + Alpelisib; first compound 0.03162 µM)	relative viability (Palbociclib + Alpelisib; first compound 0.1 µM)	relative viability (Palbociclib + Alpelisib; first compound 0.3162 µM)	relative viability (Palbociclib + Alpelisib; first compound 1 µM)
NCI-H1734	0.896	0.532	0.661	0.619	0.409	0.685	0.622	0.52	0.499	0.398	0.39	0.387	0.331	0.344	0.235	0.637	0.588	0.539	0.537	0.374
NCI-H1755	0.977	0.761	0.803	0.733	0.483	0.927	0.889	0.707	0.706	0.539	0.437	0.297	0.337	0.29	0.263	0.949	0.855	0.802	0.766	0.575
NCI-H1792	0.934	0.875	0.917	0.852	0.711	0.972	0.897	0.906	0.868	0.634	0.298	0.255	0.222	0.229	0.15	0.679	0.603	0.543	0.637	0.408
NCI-H1915	1.02	0.684	0.921	0.947	0.778	0.89	0.863	0.879	0.856	0.796	0.875	0.504	0.846	0.808	0.621	1.05	1.01	0.982	0.959	0.896
NCI-H1975	0.356	0.356	0.349	0.406	0.366	0.979	0.861	0.869	0.763	0.758	0.286	0.271	0.199	0.25	0.186	0.634	0.549	0.543	0.469	0.353
NCI-H1993	1.23	0.905	0.969	0.763	0.814	0.806	0.757	0.718	0.617	0.625	0.858	0.628	0.829	0.812	0.632	0.679	0.635	0.597	0.614	0.631
NCI-H2009	0.987	0.867	0.68	0.679	0.219	1.02	0.913	0.838	0.695	0.331	0.758	0.453	0.462	0.411	0.182	1.07	1.06	0.925	0.874	0.326
NCI-H2023	0.96	0.279	0.705	0.654	0.391	0.568	0.58	0.49	0.367	0.272	0.2	0.151	0.151	0.15	0.111	0.663	0.589	0.427	0.475	0.247
NCI-H2085	0.991	0.99	0.969	0.871	0.543	0.895	0.823	0.513	0.695	0.576	0.517	0.427	0.398	0.361	0.318	1.03	0.891	0.923	0.84	0.616
NCI-H2087	0.803	0.81	0.702	0.485	0.372	0.802	0.901	0.618	0.643	0.375	0.83	0.669	0.478	0.498	0.393	1.18	0.962	0.824	0.68	0.531
NCI-H2126	1.1	0.91	0.925	0.801	0.599	1.04	1.04	0.928	0.789	0.598	0.502	0.475	0.444	0.402	0.328	0.793	0.748	0.679	0.591	0.414
NCI-H2228	1.08	0.871	0.88	0.875	0.89	0.447	0.45	0.406	0.31	0.369	0.298	0.351	0.289	0.358	0.482	0.73	0.566	0.609	0.59	0.589
NCI-H2347	1.01		0.929		0.684	0.632	0.602	0.498	0.588	0.558	0.538	0.772	0.584	0.47	0.492	1.15	0.979	0.642	0.789	0.597
NCI-H2405	0.973	0.769	0.847	1.01	0.597	0.829	0.649	0.698	0.703	0.586	0.46		0.294	0.415	0.313	0.792		0.441	0.678	0.494
NCI-H3122	1.04	1.02	0.919	0.745	0.513	0.246	0.244	0.252	0.188	0.175	0.536	0.523	0.449	0.332	0.234	0.76	0.667	0.688	0.46	0.353
PC-3 [JPC-3]	0.776	0.701	0.706	0.665	0.545	0.988	1.04	0.86	0.797	0.653	0.778	0.647	0.56	0.677	0.494	1.06	1.02	0.851	0.88	0.618

Reference: the supplement of paper PMC10307832
